Test results reported in patent US9169254B2, “Spiroimidazolone derivative” (Chugai Seiyaku Kabushiki Kaisha, priority 2009, dated 2015).

These molecules were tested against T1, human PTH1 receptor (Homo sapiens, UniProt Q03431) (assay: In vitro cAMP signal activity in HKRK-B7 cells (LLC-PK1 cells overexpressing the human PTH1 receptor)). Conditions: HKRK-B7 cells; compound at 1×10^−3 M; cAMP produced as percentage of that produced by hPTH(1-34) at 100 nM.
T1 sequence (Q03431 27-593): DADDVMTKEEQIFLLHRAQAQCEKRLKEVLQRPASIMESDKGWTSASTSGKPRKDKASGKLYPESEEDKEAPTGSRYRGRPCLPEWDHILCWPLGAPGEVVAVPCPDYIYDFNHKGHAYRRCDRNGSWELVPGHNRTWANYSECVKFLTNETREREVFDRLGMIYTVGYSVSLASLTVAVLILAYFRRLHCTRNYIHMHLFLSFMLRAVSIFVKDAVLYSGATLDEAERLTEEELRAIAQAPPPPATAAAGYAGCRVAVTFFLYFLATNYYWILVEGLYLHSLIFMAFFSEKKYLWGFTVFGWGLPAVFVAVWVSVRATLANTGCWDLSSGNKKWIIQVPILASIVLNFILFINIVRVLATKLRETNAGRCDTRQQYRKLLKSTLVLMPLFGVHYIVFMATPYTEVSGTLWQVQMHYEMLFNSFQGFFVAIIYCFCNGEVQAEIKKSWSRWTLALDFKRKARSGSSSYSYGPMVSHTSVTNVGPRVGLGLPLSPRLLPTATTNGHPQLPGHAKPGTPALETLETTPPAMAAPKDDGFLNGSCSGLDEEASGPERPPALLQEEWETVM
Assay type: cell-based

Structure (SMILES) | cAMP production activity (%)
O=C(OCc1ccccc1)N1CCCC(C2=NC3(CCN(S(=O)(=O)CCc4cccc5ccccc45)CC3)C(=O)N2)C1 (stereo not shown) [Compound 464, 3-[8-(2-naphthalen-1-yl-ethanesulfonyl)-4-oxo-1,3,8-triaza-spiro[4.5]dec-1-en-2-yl]-piperidine-1-carboxylic acid benzyl ester] | 54%
Cc1cc(C(=O)N(C)C)ccc1CCS(=O)(=O)N1CCC2(CC1)N=C(COc1ccc(F)cc1)NC2=O [Compound 125, 4-{2-[2-(4-fluoro-phenoxymethyl)-4-oxo-1,3,8-triaza-spiro[4.5]dec-1-ene-8-sulfonyl]-ethyl}-3,N,N-trimethyl-benzamide] | 62%
O=C1NC(c2ccccc2-c2ccccc2)=NC12CCN(S(=O)(=O)c1cccc(Cl)c1)CC2 [Compound 10, 2-biphenyl-2-yl-8-(3-chloro-benzenesulfonyl)-1,3,8-triaza-spiro[4.5]dec-1-en-4-one] | 2.4%
NCCn1ccc2c(/C=C/S(=O)(=O)N3CCC4(CC3)N=C(C3CCCCC3)NC4=O)cccc21 [Compound 686, 8-{(E)-2-[1-(2-Amino-ethyl)-1H-indol-4-yl]-ethenesulfonyl}-2-cyclohexyl-1,3,8-triaza-spiro[4.5]dec-1-en-4-one] | 22%
O=C1NC(c2cccc(OC(F)(F)F)c2)=NC12CCN(S(=O)(=O)CCc1cccc3c1OC(F)(F)O3)CC2 [Compound 307, 8-[2-(2,2-difluoro-benzo[1,3]dioxol-4-yl)-ethanesulfonyl]-2-(3-trifluoromethoxy-phenyl)-1,3,8-triaza-spiro[4.5]dec-1-en-4-one] | 58%
Cc1ccc(OCCC(O)CO)cc1/C=C/S(=O)(=O)N1CCC2(CC1)N=C(c1cccc(OC(F)(F)F)c1)NC2=O (stereo not shown) [Compound 255, 8-{(E)-2-[5-(3,4-dihydroxy-butoxy)-2-methyl-phenyl]-ethenesulfonyl}-2-(3-trifluoromethoxy-phenyl)-1,3,8-triaza-spiro[4.5]dec-1-en-4-one] | 64%
CN(C)C(=O)c1cccc(C2=NC3(CCN(S(=O)(=O)c4cccc(Cl)c4)CC3)C(=O)N2)c1 [Compound 351, 3-[8-(3-chloro-benzenesulfonyl)-4-oxo-1,3,8-triaza-spiro[4.5]dec-1-en-2-yl]-N,N-dimethyl-benzamide] | 7.4%
Cc1cc(N(CCOCCO)C(N)=O)cc(C)c1/C=C/S(=O)(=O)N1CCC2(CC1)N=C(C1CCC(CCC(F)(F)F)CC1)NC2=O (stereo not shown) [Compound 724, 1-[3,5-Dimethyl-4-((E)-2-{4-oxo-2-[4-(3,3,3-trifluoro-propyl)-cyclohexyl]-1,3,8-triaza-spiro[4.5]dec-1-ene-8-sulfonyl}-vinyl)-phenyl]-1-[2-(2-hydroxy-ethoxy)-ethyl]-urea] | 74%
Cc1cc(C(=O)N(C)C)ccc1CCS(=O)(=O)N1CCC2(CC1)N=C(c1c(F)cccc1F)NC2=O [Compound 78, 4-{2-[2-(2,6-difluoro-phenyl)-4-oxo-1,3,8-triaza-spiro[4.5]dec-1-ene-8-sulfonyl]-ethyl}-3,N,N-trimethyl-benzamide] | 31%
Cc1cc(C(=O)N(C)C)ccc1/C=C/S(=O)(=O)N1CCC2(CC1)N=C(c1cccc(OC(F)(F)F)c1)NC2=O [Compound 231, 3,N,N-trimethyl-4-{(E)-2-[4-oxo-2-(3-trifluoromethoxy-phenyl)-1,3,8-triaza-spiro[4.5]dec-1-ene-8-sulfonyl]-vinyl}-benzamide] | 96%
COc1cccc(C(=O)N2CCCC(C3=NC4(CCN(S(=O)(=O)c5cccc(Cl)c5)CC4)C(=O)N3)C2)c1 (stereo not shown) [Compound 426, 8-(3-chloro-benzenesulfonyl)-2-[1-(3-methoxy-benzoyl)-piperidin-3-yl]-1,3,8-triaza-spiro[4.5]dec-1-en-4-one] | 16%
O=C1NC(C2CCC(C(F)(F)F)CC2)=NC12CCN(S(=O)(=O)CCc1cccc3ccccc13)CC2 (stereo not shown) [Compound 37, 8-(2-naphthalen-1-yl-ethanesulfonyl)-2-(4-trifluoromethyl-cyclohexyl)-1,3,8-triaza-spiro[4.5]dec-1-en-4-one] | 54%
Cc1cc(NCCO)ccc1CCS(=O)(=O)N1CCC2(CC1)N=C(c1ccc(C(F)(F)F)cc1)NC2=O [Compound 161, 8-{2-[4-(2-hydroxy-ethylamino)-2-methyl-phenyl]-ethanesulfonyl}-2-(4-trifluoromethyl-phenyl)-1,3,8-triaza-spiro[4.5]dec-1-en-4-one] | 69%
CC(=O)N(C)c1cc(F)c(/C=C/S(=O)(=O)N2CCC3(CC2)N=C(C2CCC(C)CC2)NC3=O)c(F)c1 (stereo not shown) [Compound 523, N-(3,5-difluoro-4-{(E)-2-[2-(4-methyl-cyclohexyl)-4-oxo-1,3,8-triaza-spiro[4.5]dec-1-ene-8-sulfonyl]-vinyl}-phenyl)-N-methyl-acetamide] | 89%
Cc1cc(OCCC(O)CO)cc(C)c1CCS(=O)(=O)N1CCC2(CC1)N=C(c1ccc(F)c(C(F)(F)F)c1)NC2=O (stereo not shown) [Compound 801, 8-{2-[4-(3,4-dihydroxy-butoxy)-2,6-dimethyl-phenyl]-ethanesulfonyl}-2-(4-fluoro-3-trifluoromethyl-phenyl)-1,3,8-triaza-spiro[4.5]dec-1-en-4-one] | 103%
CC(=O)N(C)Cc1cc(C)c(/C=C/S(=O)(=O)N2CCC3(CC2)N=C(C2CCC(CCC(F)(F)F)CC2)NC3=O)c(C)c1 (stereo not shown) [Compound 559, N-[3,5-dimethyl-4-((E)-2-{4-oxo-2-[4-(3,3,3-trifluoro-propyl)-cyclohexyl]-1,3,8-triaza-spiro[4.5]dec-1-ene-8-sulfonyl}-vinyl)-benzyl]-N-methyl-acetamide] | 72%
CCCCCCCCCC1=NC2(CCN(S(=O)(=O)CCc3c(C)cc(N(C)C(N)=O)cc3C)CC2)C(=O)N1 [Compound 817, 1-{3,5-dimethyl-4-[2-(2-nonyl-4-oxo-1,3,8-triaza-spiro[4.5]dec-1-ene-8-sulfonyl)-ethyl]-phenyl}-1-methyl-urea] | 111%

The next lines start with the values.

cAMP production activity (%) | Structure (SMILES)
83% | Cc1cc(S(=O)(=O)NC[C@@H](O)CO)ccc1CCS(=O)(=O)N1CCC2(CC1)N=C(c1cccc(OC(F)(F)F)c1)NC2=O [Compound 851, N—((R)-2,3-dihydroxy-propyl)-3-methyl-4-{2-[4-oxo-2-(3-trifluoromethoxy-phenyl)-1,3,8-triaza-spiro[4.5]dec-1-ene-8-sulfonyl]-ethyl}-benzenesulfonamide]
118% | Cc1cc(N(C)C(N)=O)cc(C)c1/C=C/[S@TB3](=O)(=O)N1CCC2(CC1)N=C(CCCCCCC/C=C/c1ccccc1)NC2=O [Compound 1121, 1-(3,5-dimethyl-4-{(E)-2-[4-oxo-2-((E)-9-phenyl-non-8-enyl)-1,3,8-triaza-spiro[4.5]dec-1-ene-8-sulfonyl]-vinyl}-phenyl)-1-methyl-urea]
79% | Cc1cc(N(C)C(N)=O)cc(C)c1/C=C/[S@TB4](=O)(=O)N1CCC2(CC1)N=C(CCCCCCCCCCCF)NC2=O [Compound 1118, 1-(4-{(E)-2-[2-(11-fluoro-undecyl)-4-oxo-1,3,8-triaza-spiro[4.5]dec-1-ene-8-sulfonyl]-vinyl}-3,5-dimethyl-phenyl)-1-methyl-urea]
89% | Cc1cc(N2C(=O)CC[C@@H]2CO)ccc1CCS(=O)(=O)N1CCC2(CC1)N=C(c1ccc(F)c(C(F)(F)F)c1)NC2=O [Compound 857, 2-(4-fluoro-3-trifluoromethyl-phenyl)-8-{2-[4-((R)-2-hydroxymethyl-5-oxo-pyrrolidin-1-yl)-2-methyl-phenyl]-ethanesulfonyl}-1,3,8-triaza-spiro[4.5]dec-1-en-4-one]
65% | Cc1cc(C(=O)N2CCC(C)(O)CC2)cc(C)c1/C=C/S(=O)(=O)N1CCC2(CC1)N=C(c1ccc3cc[nH]c3c1)NC2=O [Compound 1208, 8-{(E)-2-[4-(4-hydroxy-4-methyl-piperidine-1-carbonyl)-2,6-dimethyl-phenyl]-ethenesulfonyl}-2-(1H-indol-6-yl)-1,3,8-triaza-spiro[4.5]dec-1-en-4-one]
87% | Cc1cc(C(=O)N2CCC(O)CC2)cc(C)c1/C=C/[S@TB4](=O)(=O)N1CCC2(CC1)N=C(c1ccc(F)c(OC(F)(F)F)c1)NC2=O [Compound 1159, 2-(4-fluoro-3-trifluoromethoxy-phenyl)-8-{(E)-2-[4-(4-hydroxy-piperidine-1-carbonyl)-2,6-dimethyl-phenyl]-ethenesulfonyl}-1,3,8-triaza-spiro[4.5]dec-1-en-4-one]
165% | Cc1cc(N(C)C(N)=O)cc(C)c1CCS(=O)(=O)N1CCC2(CC1)N=C(c1cccc(CCCC(F)(F)F)c1)NC2=O [Compound 1359, 1-[3,5-dimethyl-4-(2-{4-oxo-2-[3-(4,4,4-trifluoro-butyl)-phenyl]-1,3,8-triaza-spiro[4.5]dec-1-ene-8-sulfonyl}-ethyl)-phenyl]-1-methyl-urea]
78% | CCCCCC[C@@H]1CCC[C@H](C2=NC3(CCN(S(=O)(=O)CCc4c(C)cc(N(C)C(N)=O)cc4C)CC3)C(=O)N2)C1 [Compound 1143, 1-(4-{2-[2-((1S,3R)-3-Hexyl-cyclohexyl)-4-oxo-1,3,8-triaza-spiro[4.5]dec-1-ene-8-sulfonyl]-ethyl}-3,5-dimethyl-phenyl)-1-methyl-urea]
